Assay results taken from ChEMBL document CHEMBL5649168, “Discovery of a selective catalytic p300/CBP inhibitor that targets lineage-specific tumours” (Nature, 2017).
Calls of active or inactive are those of the source. The calls are words filed in the database; no cut-off is given here.

Experiments:
ULA = test: Antiproliferative activity against human ULA cells assessed as inhibition of cell viability incubated for 3 to 5 days by Celltiter-Glo luminescent assay; type: functional, cell-based
[1] = Toxicity in CB17 SCID mouse xenografted with human LuCaP-77 CR cell assessed as body weight loss at 100 mg/kg, ip BID administered for 7 days relative to control; type: organism-based; settings: in vivo, 168 h, time 7 day
[2] = biological target: Dual specificity mitogen-activated protein kinase kinase 2 (Homo sapiens, UniProt P36507); test: Inhibition of MEK2 (unknown origin)
NCI-H1417 = test: Antiproliferative activity against human NCI-H1417 cells assessed as inhibition of cell viability incubated for 3 to 5 days by Celltiter-Glo luminescent assay; type: functional, cell-based
LuCaP-77 CR cell = settings: Homo sapiens, dose 100.0 mg/kg, time 7.0 day
SU-DHL-6 = test: Antiproliferative activity against human SU-DHL-6 cells assessed as inhibition of cell viability incubated for 3 to 5 days by Celltiter-Glo luminescent assay; type: functional, cell-based
NCI-H1048 = test: Antiproliferative activity against human NCI-H1048 cells assessed as inhibition of cell viability incubated for 3 to 5 days by Celltiter-Glo luminescent assay; type: functional, cell-based
HCC1143 = test: Antiproliferative activity against human HCC1143 cells assessed as inhibition of cell viability incubated for 3 to 5 days by Celltiter-Glo luminescent assay; type: functional, cell-based
AMO1 = test: Antiproliferative activity against human AMO1 cells assessed as inhibition of cell viability incubated for 3 to 5 days by Celltiter-Glo luminescent assay; type: functional, cell-based
NU-DHL-1 = test: Antiproliferative activity against human NU-DHL-1 cells assessed as inhibition of cell viability incubated for 3 to 5 days by Celltiter-Glo luminescent assay; type: functional, cell-based
CA46 = test: Antiproliferative activity against human CA46 cells assessed as inhibition of cell viability incubated for 3 to 5 days by Celltiter-Glo luminescent assay; type: functional, cell-based
[3] = biological target: ALK tyrosine kinase receptor (Homo sapiens, UniProt Q9UM73); test: Inhibition of ALK (unknown origin)
[4] = biological target: cAMP-dependent protein kinase (PKA) (Homo sapiens, UniProt P22694+P17612+P22612); test: Inhibition of PKA (unknown origin); type: protein assay
[5] = biological target: Calcium/calmodulin-dependent protein kinase type 1D (Homo sapiens, UniProt Q8IU85); test: Inhibition of CAMK1D (unknown origin)
[6] = Anti-tumor activity against human LuCaP-77 CR cell xenografted in SCID mouse assessed as tumor growth inhibition administered for 21 days relative to control; type: functional; settings: time 21 day
U2932 = test: Antiproliferative activity against human U2932 cells assessed as inhibition of cell viability incubated for 3 to 5 days by Celltiter-Glo luminescent assay; type: functional, cell-based
OCI-Ly7 = test: Antiproliferative activity against human OCILY7 cells assessed as inhibition of cell viability incubated for 3 to 5 days by Celltiter-Glo luminescent assay; type: functional, cell-based
[7] = Inhibition of CDK8/Cyclin C (unknown origin); parameters: species or system Homo sapiens
Insulin receptor = Insulin receptor (Homo sapiens, UniProt P06213); test: Inhibition of InsR (unknown origin)
NCI-H23 = test: Antiproliferative activity against human NCI-H23 cells assessed as inhibition of cell viability incubated for 3 to 5 days by Celltiter-Glo luminescent assay; type: functional, cell-based
Hs 294T = test: Antiproliferative activity against human Hs294T cells assessed as inhibition of cell viability incubated for 3 to 5 days by Celltiter-Glo luminescent assay; type: functional, cell-based
NCI-H211 = test: Antiproliferative activity against human NCI-H211 cells assessed as inhibition of cell viability incubated for 3 to 5 days by Celltiter-Glo luminescent assay; type: functional, cell-based
Pfeiffer = test: Antiproliferative activity against human Pfeiffer cells assessed as inhibition of cell viability incubated for 3 to 5 days by Celltiter-Glo luminescent assay; type: functional, cell-based
[8] = biological target: Histone acetyltransferase p300 (Homo sapiens, UniProt Q09472)
[9] = biological target: BDNF/NT-3 growth factors receptor (Homo sapiens, UniProt Q16620); test: Inhibition of TrkB (unknown origin)
Aurora kinase B = Aurora kinase B (Homo sapiens, UniProt Q96GD4); test: Inhibition of Aurora1 (unknown origin)
WSU-NHL = test: Antiproliferative activity against human WSU-NHL cells assessed as inhibition of cell viability incubated for 3 to 5 days by Celltiter-Glo luminescent assay; type: functional, cell-based
[10] = biological target: Glycogen synthase kinase-3 beta (Homo sapiens, UniProt P49841); test: Inhibition of Gsk3beta (unknown origin)
[11] = Cmax in CB17 SCID mouse xenografted with LuCaP-77 CR cell at 200 mg/kg, ip administered for 7 days; type: ADME, organism-based; settings: in vivo, time 7 day
SU-DHL10 = test: Antiproliferative activity against human Su-DHL-10 cells assessed as inhibition of cell viability incubated for 3 to 5 days by Celltiter-Glo luminescent assay; type: functional, cell-based
[12] = biological target: Epidermal growth factor receptor (Homo sapiens, UniProt P00533); test: Inhibition of EGFR (unknown origin)
NCI-H2444 = test: Antiproliferative activity against human NCI-H2444 cells assessed as inhibition of cell viability incubated for 3 to 5 days by Celltiter-Glo luminescent assay; type: functional, cell-based
[13] = Inhibition of CDK7/Cyclin H (unknown origin); parameters: species or system Homo sapiens
[14] = biological target: Serine/threonine-protein kinase 33 (Homo sapiens, UniProt Q9BYT3); test: Inhibition of STK33 (unknown origin)
Wee1-like protein kinase = Wee1-like protein kinase (Homo sapiens, UniProt P30291); test: Inhibition of Wee1 (unknown origin)
MeWo = test: Antiproliferative activity against human MeWo cells assessed as inhibition of cell viability incubated for 3 to 5 days by Celltiter-Glo luminescent assay; type: functional, cell-based
[15] = biological target: Tyrosine-protein kinase JAK3 (Homo sapiens, UniProt P52333); test: Inhibition of JAK3 (unknown origin)
HT-144 = test: Antiproliferative activity against human HT-144 cells assessed as inhibition of cell viability incubated for 3 to 5 days by Celltiter-Glo luminescent assay; type: functional, cell-based
HCC1806 = test: Antiproliferative activity against human HCC1806 cells assessed as inhibition of cell viability incubated for 3 to 5 days by Celltiter-Glo luminescent assay; type: functional, cell-based
U-937 = test: Antiproliferative activity against human U937 cells assessed as inhibition of cell viability incubated for 3 to 5 days by Celltiter-Glo luminescent assay; type: functional, cell-based
NCI-H596 = test: Antiproliferative activity against human NCI-H596 cells assessed as inhibition of cell viability incubated for 3 to 5 days by Celltiter-Glo luminescent assay; type: functional, cell-based
[16] = biological target: Platelet-derived growth factor receptor beta (Homo sapiens, UniProt P09619); test: Inhibition of PDGFRbeta (unknown origin)
[17] = biological target: Protein kinase C theta type (Homo sapiens, UniProt Q04759); test: Inhibition of PKCtheta (unknown origin)
WM 266-4 = test: Antiproliferative activity against human WM266-4 cells assessed as inhibition of cell viability incubated for 3 to 5 days by Celltiter-Glo luminescent assay; type: functional, cell-based

Sequence of Dual specificity mitogen-activated protein kinase kinase 2 (P36507 whole entry): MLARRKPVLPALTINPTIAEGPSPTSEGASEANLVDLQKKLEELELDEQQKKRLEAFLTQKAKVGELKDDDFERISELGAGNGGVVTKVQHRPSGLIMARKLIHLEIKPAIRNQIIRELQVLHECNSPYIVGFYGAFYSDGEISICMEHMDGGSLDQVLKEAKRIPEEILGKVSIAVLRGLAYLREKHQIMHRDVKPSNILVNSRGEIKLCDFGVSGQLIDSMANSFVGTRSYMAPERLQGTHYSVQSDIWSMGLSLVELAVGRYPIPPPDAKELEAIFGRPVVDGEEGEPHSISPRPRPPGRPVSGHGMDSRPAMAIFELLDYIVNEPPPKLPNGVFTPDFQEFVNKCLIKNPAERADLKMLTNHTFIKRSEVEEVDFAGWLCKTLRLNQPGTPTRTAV
Sequence of Serine/threonine-protein kinase 33 (Q9BYT3 whole entry): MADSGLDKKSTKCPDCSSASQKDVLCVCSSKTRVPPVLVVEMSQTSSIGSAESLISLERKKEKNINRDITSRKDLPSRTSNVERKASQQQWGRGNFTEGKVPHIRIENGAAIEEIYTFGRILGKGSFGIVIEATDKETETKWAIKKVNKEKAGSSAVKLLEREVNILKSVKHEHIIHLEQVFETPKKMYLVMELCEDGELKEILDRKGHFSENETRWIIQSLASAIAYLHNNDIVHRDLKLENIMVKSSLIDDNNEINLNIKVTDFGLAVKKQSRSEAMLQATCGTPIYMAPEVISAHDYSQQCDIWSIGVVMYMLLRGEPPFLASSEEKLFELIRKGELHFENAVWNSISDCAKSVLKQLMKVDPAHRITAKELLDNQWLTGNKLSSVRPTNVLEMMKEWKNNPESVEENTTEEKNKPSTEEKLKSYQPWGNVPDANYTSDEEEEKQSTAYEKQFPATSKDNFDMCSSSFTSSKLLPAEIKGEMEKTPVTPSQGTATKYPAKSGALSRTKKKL
Sequence of Insulin receptor (P06213 28-758 limits assumed): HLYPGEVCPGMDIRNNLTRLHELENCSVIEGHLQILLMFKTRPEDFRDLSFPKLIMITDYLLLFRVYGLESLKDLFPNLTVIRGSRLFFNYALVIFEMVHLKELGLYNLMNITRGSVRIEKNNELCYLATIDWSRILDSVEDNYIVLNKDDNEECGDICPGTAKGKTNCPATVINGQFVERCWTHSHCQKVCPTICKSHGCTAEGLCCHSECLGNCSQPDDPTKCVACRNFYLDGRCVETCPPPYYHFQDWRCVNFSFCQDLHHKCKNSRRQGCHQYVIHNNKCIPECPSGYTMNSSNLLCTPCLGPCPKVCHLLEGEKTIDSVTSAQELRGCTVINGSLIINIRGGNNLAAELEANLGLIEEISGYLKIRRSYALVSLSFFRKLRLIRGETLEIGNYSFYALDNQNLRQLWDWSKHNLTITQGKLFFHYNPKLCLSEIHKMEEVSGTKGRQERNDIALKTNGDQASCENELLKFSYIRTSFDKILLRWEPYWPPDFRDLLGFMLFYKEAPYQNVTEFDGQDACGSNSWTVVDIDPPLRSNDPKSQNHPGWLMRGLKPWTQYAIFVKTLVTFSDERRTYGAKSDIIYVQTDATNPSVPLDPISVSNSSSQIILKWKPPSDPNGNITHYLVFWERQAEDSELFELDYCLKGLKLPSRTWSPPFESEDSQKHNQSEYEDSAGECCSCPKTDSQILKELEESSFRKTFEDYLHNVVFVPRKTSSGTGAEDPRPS
Sequence of Insulin receptor (P06213 763-1382 limits assumed): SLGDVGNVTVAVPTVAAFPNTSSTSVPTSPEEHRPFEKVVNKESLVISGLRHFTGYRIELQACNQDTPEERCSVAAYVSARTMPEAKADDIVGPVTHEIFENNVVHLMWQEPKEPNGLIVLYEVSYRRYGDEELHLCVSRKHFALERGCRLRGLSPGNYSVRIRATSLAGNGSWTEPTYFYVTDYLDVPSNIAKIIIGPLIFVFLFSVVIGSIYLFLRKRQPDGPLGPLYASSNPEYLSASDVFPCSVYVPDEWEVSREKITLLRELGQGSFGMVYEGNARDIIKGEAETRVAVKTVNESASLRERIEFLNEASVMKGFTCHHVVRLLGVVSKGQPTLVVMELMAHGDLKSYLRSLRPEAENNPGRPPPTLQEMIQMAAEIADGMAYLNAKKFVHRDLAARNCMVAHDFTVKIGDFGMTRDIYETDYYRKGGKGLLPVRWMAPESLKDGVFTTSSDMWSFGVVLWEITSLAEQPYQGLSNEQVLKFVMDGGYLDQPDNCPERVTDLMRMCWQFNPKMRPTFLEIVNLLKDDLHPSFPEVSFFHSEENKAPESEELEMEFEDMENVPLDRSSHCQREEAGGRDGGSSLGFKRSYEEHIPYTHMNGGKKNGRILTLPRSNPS
Sequence of Protein kinase C theta type (Q04759 whole entry): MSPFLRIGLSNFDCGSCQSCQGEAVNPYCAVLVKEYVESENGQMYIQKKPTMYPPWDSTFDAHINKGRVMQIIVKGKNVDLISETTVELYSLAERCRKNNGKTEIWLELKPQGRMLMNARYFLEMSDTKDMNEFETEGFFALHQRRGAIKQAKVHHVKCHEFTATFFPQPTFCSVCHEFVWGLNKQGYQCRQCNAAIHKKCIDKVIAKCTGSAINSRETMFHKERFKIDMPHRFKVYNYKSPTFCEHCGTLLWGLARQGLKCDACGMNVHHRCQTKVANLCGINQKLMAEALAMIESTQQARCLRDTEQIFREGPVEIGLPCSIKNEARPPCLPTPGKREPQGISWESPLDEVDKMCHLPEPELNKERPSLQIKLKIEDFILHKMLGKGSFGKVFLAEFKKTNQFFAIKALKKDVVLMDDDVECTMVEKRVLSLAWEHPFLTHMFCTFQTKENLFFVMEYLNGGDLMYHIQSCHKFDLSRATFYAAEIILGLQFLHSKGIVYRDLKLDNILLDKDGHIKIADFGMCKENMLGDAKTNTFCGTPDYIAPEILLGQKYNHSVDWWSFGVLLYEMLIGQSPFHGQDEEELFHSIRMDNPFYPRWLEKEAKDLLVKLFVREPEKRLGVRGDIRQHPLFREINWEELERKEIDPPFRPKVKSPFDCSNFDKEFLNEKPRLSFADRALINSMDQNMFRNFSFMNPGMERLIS
Sequence of Platelet-derived growth factor receptor beta (P09619 whole entry): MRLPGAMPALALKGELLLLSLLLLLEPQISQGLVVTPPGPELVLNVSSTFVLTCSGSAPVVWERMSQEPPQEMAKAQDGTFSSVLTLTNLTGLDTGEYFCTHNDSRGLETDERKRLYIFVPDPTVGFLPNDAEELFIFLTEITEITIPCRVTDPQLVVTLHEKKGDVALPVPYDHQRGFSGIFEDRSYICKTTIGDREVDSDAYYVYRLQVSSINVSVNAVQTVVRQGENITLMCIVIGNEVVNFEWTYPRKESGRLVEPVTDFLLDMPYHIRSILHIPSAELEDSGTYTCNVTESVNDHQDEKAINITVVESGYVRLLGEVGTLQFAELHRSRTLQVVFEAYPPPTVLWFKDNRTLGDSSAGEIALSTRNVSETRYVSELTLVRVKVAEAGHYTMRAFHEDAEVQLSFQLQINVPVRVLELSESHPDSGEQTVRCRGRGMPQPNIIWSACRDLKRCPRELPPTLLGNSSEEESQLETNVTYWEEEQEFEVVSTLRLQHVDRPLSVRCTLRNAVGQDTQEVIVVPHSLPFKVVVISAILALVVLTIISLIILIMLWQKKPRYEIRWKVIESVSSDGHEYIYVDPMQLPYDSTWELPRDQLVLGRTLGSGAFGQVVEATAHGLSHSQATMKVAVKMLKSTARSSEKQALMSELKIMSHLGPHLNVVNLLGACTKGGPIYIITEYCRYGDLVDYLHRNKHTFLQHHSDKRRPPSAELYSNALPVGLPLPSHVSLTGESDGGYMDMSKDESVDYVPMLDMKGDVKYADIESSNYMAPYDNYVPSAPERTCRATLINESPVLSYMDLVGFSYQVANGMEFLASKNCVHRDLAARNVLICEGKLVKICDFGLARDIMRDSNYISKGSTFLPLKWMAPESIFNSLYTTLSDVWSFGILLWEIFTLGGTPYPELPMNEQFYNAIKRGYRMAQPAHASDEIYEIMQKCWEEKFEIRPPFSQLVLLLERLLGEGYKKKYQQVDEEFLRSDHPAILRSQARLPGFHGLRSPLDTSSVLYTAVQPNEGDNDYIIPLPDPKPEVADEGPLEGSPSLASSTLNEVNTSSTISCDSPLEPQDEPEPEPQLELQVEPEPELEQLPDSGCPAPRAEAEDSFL
Sequence of Glycogen synthase kinase-3 beta (P49841 whole entry): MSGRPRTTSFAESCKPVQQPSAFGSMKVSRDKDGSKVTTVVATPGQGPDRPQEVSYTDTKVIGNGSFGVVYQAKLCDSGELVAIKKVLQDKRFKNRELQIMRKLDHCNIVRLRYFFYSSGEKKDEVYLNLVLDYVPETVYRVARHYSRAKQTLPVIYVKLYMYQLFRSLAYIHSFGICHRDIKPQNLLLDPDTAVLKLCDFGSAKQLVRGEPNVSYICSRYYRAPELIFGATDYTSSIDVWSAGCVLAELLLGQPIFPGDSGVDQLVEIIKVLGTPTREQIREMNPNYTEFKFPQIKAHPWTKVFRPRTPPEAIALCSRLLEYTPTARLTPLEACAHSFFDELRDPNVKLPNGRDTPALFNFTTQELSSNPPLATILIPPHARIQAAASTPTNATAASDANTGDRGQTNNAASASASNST
Sequence of Aurora kinase B (Q96GD4 whole entry): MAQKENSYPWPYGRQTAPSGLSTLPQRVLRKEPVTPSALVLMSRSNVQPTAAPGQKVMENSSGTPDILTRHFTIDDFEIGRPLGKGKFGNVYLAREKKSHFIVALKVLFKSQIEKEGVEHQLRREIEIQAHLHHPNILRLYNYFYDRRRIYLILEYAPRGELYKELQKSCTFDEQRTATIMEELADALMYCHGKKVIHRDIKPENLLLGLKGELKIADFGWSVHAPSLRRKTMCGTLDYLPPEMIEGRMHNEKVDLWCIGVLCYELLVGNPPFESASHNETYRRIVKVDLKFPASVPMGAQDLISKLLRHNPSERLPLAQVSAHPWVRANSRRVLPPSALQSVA

## CNC(=O)Nc1ccc2c(c1)CC[C@@]21OC(=O)N(CC(=O)N(Cc2ccc(F)cc2)[C@@H](C)C(F)(F)F)C1=O [A-485]
ULA
  EC50: 0.55 µM
[1]
  Activity: 9%
[2]
  IC50: > 10 µM
NCI-H1417
  EC50: > 10 µM
LuCaP-77 CR cell
  inhibition: Active
SU-DHL-6
  EC50: 0.75 µM
NCI-H1048
  EC50: > 10 µM
HCC1143
  EC50: > 10 µM
AMO1
  EC50: 1.09 µM
NU-DHL-1
  EC50: 0.53 µM
CA46
  EC50: 0.48 µM
[3]
  IC50: > 10 µM
[4]
  IC50: > 10 µM
[5]
  IC50: > 10 µM
[6]
  TGI: 54%
U2932
  EC50: 2.46 µM
OCI-Ly7
  EC50: 1.81 µM
[7]
  IC50: > 10 µM
Insulin receptor
  IC50: > 10 µM
NCI-H23
  EC50: 1.79 µM
Hs 294T
  EC50: 9 µM
NCI-H211
  EC50: 1.5 µM
Pfeiffer
  EC50: 0.86 µM
[8]
  T1/2: 8.85 min
[9]
  IC50: > 10 µM
Aurora kinase B
  IC50: > 10 µM
WSU-NHL
  EC50: 1.06 µM
[10]
  IC50: > 10 µM
[11]
  Cmax: 242 µg/mL
SU-DHL10
  EC50: 0.92 µM
[12]
  IC50: > 10 µM
NCI-H2444
  EC50: 5.92 µM
[13]
  IC50: > 10 µM
[14]
  IC50: > 10 µM
Wee1-like protein kinase
  IC50: > 10 µM
MeWo
  EC50: 2.43 µM
[15]
  IC50: > 10 µM
HT-144
  EC50: 3.08 µM
HCC1806
  EC50: 2.95 µM
U-937
  EC50: > 10 µM
NCI-H596
  EC50: > 10 µM
[16]
  IC50: > 10 µM
[17]
  IC50: > 10 µM
WM 266-4
  EC50: 1.91 µM
